The values below come from US8008292B2, “Condensed benzamide compounds and inhibitors of vanilloid receptor subtype 1 (VR1) activity” (Japan Tobacco Inc., priority 2004, dated 2011).

Where a name gives a salt, the structure may show the parent alone.

The target in this test is T1, human VR1 (Homo sapiens, UniProt Q8NER1).
T1 construct: expressed in transfected cells
T1 sequence (Q8NER1 whole entry): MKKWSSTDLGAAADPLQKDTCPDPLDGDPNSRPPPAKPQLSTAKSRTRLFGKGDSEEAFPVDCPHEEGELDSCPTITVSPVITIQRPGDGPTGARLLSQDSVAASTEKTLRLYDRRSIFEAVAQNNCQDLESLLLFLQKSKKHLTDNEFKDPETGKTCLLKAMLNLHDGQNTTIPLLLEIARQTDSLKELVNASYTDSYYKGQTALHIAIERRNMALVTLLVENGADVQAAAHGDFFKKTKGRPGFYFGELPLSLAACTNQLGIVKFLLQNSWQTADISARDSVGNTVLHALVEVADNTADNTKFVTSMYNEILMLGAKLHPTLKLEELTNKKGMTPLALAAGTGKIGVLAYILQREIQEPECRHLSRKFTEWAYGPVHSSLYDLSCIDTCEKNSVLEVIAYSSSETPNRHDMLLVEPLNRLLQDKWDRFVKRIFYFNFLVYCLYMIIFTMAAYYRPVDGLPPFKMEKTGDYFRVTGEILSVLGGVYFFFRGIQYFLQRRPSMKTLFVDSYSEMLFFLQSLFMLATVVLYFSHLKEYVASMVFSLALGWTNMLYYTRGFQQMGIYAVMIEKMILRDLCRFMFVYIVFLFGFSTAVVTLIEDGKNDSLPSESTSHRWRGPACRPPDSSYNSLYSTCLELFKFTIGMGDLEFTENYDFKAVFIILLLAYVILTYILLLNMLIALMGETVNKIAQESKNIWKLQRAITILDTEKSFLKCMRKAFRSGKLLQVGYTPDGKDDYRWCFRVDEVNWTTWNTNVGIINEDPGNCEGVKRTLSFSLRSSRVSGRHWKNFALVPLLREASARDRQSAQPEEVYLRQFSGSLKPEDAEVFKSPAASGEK
Kind of test: Inhibition of Ca2+ entry in cells caused by proton, in rat glioma (C6BU1) cells stably expressing human VR1 (Fura 2 fluorescence). It counts as cell-based. The following applies: inhibition of proton-induced Ca2+ entry. The method, boiled down: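 Fura 2-loaded C6BU1 cells in 20 mM MES buffer pH 6.8 with added Ca2+ were preincubated 10 min with compound (final 1 μM to 0.1 nM, 1% DMSO). Proton stimulation brought pH to 5.5. Fluorescence rise was measured, and IC50 was derived from % inhibition versus DMSO control.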
In the case of `O=C(Nc1ccc(OC(F)(F)F)cc1)c1cccc2c1OC(CO)CN2c1ncccc1Cl` (centres unmarked) [Example 1-231], the IC50 (in general, the point on the concentration scale where inhibition reaches its midpoint) was 0.1 to 1 µM.
With `NC(=O)[C@H]1COc2c(C(=O)Nc3ccc(C(F)(F)F)cc3)cccc2N1c1ncccc1Cl` [Example 1-233] the figure was under 0.1 µM; with `CNC(=O)[C@H]1COc2c(C(=O)Nc3ccc(C(F)(F)F)cc3)cccc2N1c1ncccc1Cl` [Example 1-234], under 0.1 µM.
As to `O=C(Nc1ccc2c(c1)OCO2)c1cccc2c1OCCN2c1ncc(CO)cc1Cl` [Example 2-01, N-(benzo[1,3]dioxol-5-yl)-4-(3-chloro-5-hydroxymethylpyridin-2-yl)-3,4-dihydro-2H-benzo[1,4]oxazine-8-carboxamide], the IC50 fell in the range of 0.1 to 1 µM.
With `O=C(Nc1ccc(OC(F)(F)F)cc1)c1cccc2c1OCCN2c1ncc(CO)cc1Cl` [Example 2-03, N-(4-trifluoromethoxyphenyl)-4-(3-chloro-5-hydroxymethylpyridin-2-yl)-3,4-dihydro-2H-benzo[1,4]oxazine-8-carboxamide] the figure was under 0.1 µM.
`O=C(Nc1ccc(OC(F)(F)F)c(Cl)c1)c1cccc2c1OCCN2c1ncc(CO)cc1Cl` [Example 2-04, N-(3-chloro-4-trifluoromethoxypheny)-4-(3-chloro-5-hydroxymethylpyridin-2-yl)-3,4-dihydro-2H-benzo[1,4]oxazine-8-carboxamide] registered an IC50 of under 0.1 µM.
With `O=C(Nc1ccc(C(F)(F)F)cc1)c1cccc2c1OCCN2c1ncc(CO)cc1Cl` [Example 2-05, N-(4-trifluoromethylphenyl)-4-(3-chloro-5-hydroxymethylpyridin-2-yl)-3,4-dihydro-2H-benzo[1,4]oxazine-8-carboxamide] the figure was under 0.1 µM; with `O=C(Nc1ccc(C(F)(F)F)c(F)c1)c1cccc2c1OCCN2c1ncc(CO)cc1Cl` [Example 2-06, N-(3-fluoro-4-trifluoromethylphenyl)-4-(3-chloro-5-hydroxymethylpyridin-2-yl)-3,4-dihydro-2H-benzo[1,4]oxazine-8-carboxamide], under 0.1 µM; with `O=C(Nc1ccc(C(F)(F)F)cc1)c1cccc2c1OCCN2c1ccc(CO)cn1` [Example 2-07, N-(4-trifluoromethylphenyl)-4-(5-hydroxymethylpyridin-2-yl)-3,4-dihydro-2H-benzo[1,4]oxazine-8-carboxamide hydrochloride], under 0.1 µM.
On to `CC(C)COc1ccc(NC(=O)c2cccc3c2OCCN3c2ccc(CO)cn2)cc1` [Example 2-08, 4-(5-hydroxymethylpyridin-2-yl)-N-(4-isobutyloxyphenyl)-3,4-dihydro-2H-benzo[1,4]oxazine-8-carboxamide], for which the IC50 is under 0.1 µM.
In the case of `COCc1cnc(N2CCOc3c(C(=O)Nc4ccc(C(F)(F)F)cc4)cccc32)c(Cl)c1` [Example 2-09, 4-(3-chloro-5-methoxymethylpyridin-2-yl)-N-(4-trifluoromethylpheny)-3,4-dihydro-2H-benzo[1,4]oxazine-8-carboxamide] it was under 0.1 µM; in that of `O=C(Nc1ccc(OC(F)(F)F)cc1)c1cccc2c1OCCN2c1ncccc1CO` [Example 2-11, N-(4-trifluoromethoxyphenyl)-4-(3-hydroxymethylpyridin-2-yl)-3,4-dihydro-2H-benzo[1,4]oxazine-8-carboxamide], 0.1 to 1 µM.
In the case of `O=C(Nc1ccc(C(F)(F)F)nc1)c1cccc2c1OCCN2c1ncc(CO)cc1Cl` [Example 2-16], the IC50 is under 0.1 µM.
In the case of `O=C(Nc1ccc(Br)c(Cl)c1)c1cccc2c1OCCN2c1ncc(CO)cc1Cl` [Example 2-17] it was under 0.1 µM; in that of `CC(C)Oc1ccc(NC(=O)c2cccc3c2OCCN3c2ncc(CO)cc2Cl)cc1C(F)(F)F` [Example 2-19], under 0.1 µM; in that of `O=C(Nc1cnc(Cl)c(Cl)c1)c1cccc2c1OCCN2c1ncc(CO)cc1Cl` [Example 2-20], under 0.1 µM.
`O=C(Nc1cc(Cl)c(Cl)c(Cl)c1)c1cccc2c1OCCN2c1ncc(CO)cc1Cl` [Example 2-21] returned an IC50 of under 0.1 µM.
For the compound `O=C(Nc1nc2ccc(F)cc2s1)c1cccc2c1OCCN2c1ncc(CO)cc1Cl` [Example 2-22], the IC50 is under 0.1 µM.
With `O=C(Nc1ccc(Br)c(C(F)(F)F)c1)c1cccc2c1OCCN2c1ncc(CO)cc1Cl` [Example 2-23] the figure was under 0.1 µM; with `O=C(Nc1cc(F)c(F)c(F)c1)c1cccc2c1OCCN2c1ncc(CO)cc1Cl` [Example 2-25], under 0.1 µM; with `O=C(Nc1ccc(F)c([N+](=O)[O-])c1)c1cccc2c1OCCN2c1ncc(CO)cc1Cl` [Example 2-26], 0.1 to 1 µM.
Compound `CC(C)(C)c1ccc(NC(=O)c2cccc3c2OCCN3c2ccc(CO)cn2)cc1` [Example 2-28] registered an IC50 of under 0.1 µM.
With `O=C(Nc1cc(C(F)(F)F)cc(C(F)(F)F)c1)c1cccc2c1OCCN2c1ncc(CO)cc1Cl` [Example 2-29] the figure was under 0.1 µM.
For `O=C(Nc1ccc(OCC(F)(F)F)cc1)c1cccc2c1OCCN2c1ncc(CO)cc1Cl` [Example 2-30], the IC50 was under 0.1 µM.
Take `O=C(Nc1ccc(OCC(F)(F)F)c(Cl)c1)c1cccc2c1OCCN2c1ncc(CO)cc1Cl` [Example 2-31]: the IC50 was under 0.1 µM.
`O=C(Nc1ccc(SC(F)(F)F)cc1)c1cccc2c1OCCN2c1ncc(CO)cc1Cl` [Example 2-32] returned an IC50 of under 0.1 µM.
In the case of `CC(C)(C)C1CCC(NC(=O)c2cccc3c2OCCN3c2ncc(CO)cc2Cl)CC1` (centres unmarked) [Example 2-33] it was under 0.1 µM; in that of `CC(C)Oc1ccc(NC(=O)c2cccc3c2OCCN3c2ncc(CO)cc2Cl)cc1F` [Example 2-34], under 0.1 µM; in that of `O=C(Nc1ccc(N2CCCCC2)c(F)c1)c1cccc2c1OCCN2c1ncc(CO)cc1Cl` [Example 2-35], under 0.1 µM.
In the case of `CC(C)(C)c1ccc(NC(=O)c2cccc3c2OCCN3c2ncc(CO)cc2Cl)cc1` [Example 2-36], the IC50 was under 0.1 µM.
With `O=C(Nc1ccc(C(O)(C(F)(F)F)C(F)(F)F)cc1)c1cccc2c1OCCN2c1ncc(CO)cc1Cl` [Example 2-37] the figure was under 0.1 µM; with `O=C(Nc1ccc2c(c1)OC(F)(F)C(F)(F)O2)c1cccc2c1OCCN2c1ncc(CO)cc1Cl` [Example 2-38], under 0.1 µM; with `CC(C)COc1ccc(NC(=O)c2cccc3c2OCCN3c2ncc(CO)cc2Cl)cc1` [Example 2-39], under 0.1 µM.
In the case of `O=C(Nc1ccc(Cl)c(Cl)c1)c1cccc2c1OCCN2c1ncc(CO)cc1Cl` [Example 2-40] it was under 0.1 µM; in that of `O=C(Nc1ccc(Br)c(F)c1)c1cccc2c1OCCN2c1ncc(CO)cc1Cl` [Example 2-41], under 0.1 µM.
In the case of `O=C(Nc1ccc(Br)cc1)c1cccc2c1OCCN2c1ncc(CO)cc1Cl` [Example 2-42] it was under 0.1 µM.
`O=C(Nc1cc(Cl)cc(Cl)c1)c1cccc2c1OCCN2c1ncc(CO)cc1Cl` [Example 2-43] yielded an IC50 of under 0.1 µM.
With `O=C(Nc1ccc(OC(F)F)cc1)c1cccc2c1OCCN2c1ncc(CO)cc1Cl` [Example 2-44] the figure was under 0.1 µM; with `O=C(Nc1ccc(Cl)cc1)c1cccc2c1OCCN2c1ncc(CO)cc1Cl` [Example 2-45], under 0.1 µM.
`CC(C)c1ccc(NC(=O)c2cccc3c2OCCN3c2ncc(CO)cc2Cl)cc1` [Example 2-46]: the IC50 was under 0.1 µM.
For the compound `O=C(Nc1cccc(OC(F)(F)F)c1)c1cccc2c1OCCN2c1ncc(CO)cc1Cl` [Example 2-47], the IC50 is under 0.1 µM.
On to `CC(O)c1cnc(N2CCOc3c(C(=O)Nc4ccc(OC(F)(F)F)cc4)cccc32)c(Cl)c1` (centres unmarked) [Example 2-48], for which the IC50 was under 0.1 µM.
In the case of `O=C(Nc1ccc(OC(F)(F)F)cc1)c1cccc2c1OC[C@@H](CO)N2c1ncccc1Cl` [Example 4-01, (R)-4-(3-chloropyridin-2-yl)-3-hydroxylmethyl-N-(4-trifluoromethoxyphenyl)-3,4-dihydro-2H-benzo[1,4]oxazine-8-carboxamide] it was 0.1 to 1 µM; in that of `O=C(Nc1ccc(OC(F)(F)F)cc1)c1cccc2c1OC[C@H](CO)N2c1ncccc1Cl` [Example 4-03, (S)-4-(3-chloropyridin-2-yl)-3-hydroxylmethyl-N-(4-trifluoromethoxyphenyl)-3,4-dihydro-2H-benzo[1,4]oxazine-8-carboxamide], under 0.1 µM; in that of `O=C(Nc1ccc(C(F)(F)F)cc1)c1cccc2c1OC[C@H](CO)N2c1ncccc1Cl` [Example 4-04, (S)-4-(3-chloropyridin-2-yl)-3-hydroxylmethyl-N-(4-trifluoromethylphenyl)-3,4-dihydro-2H-benzo[1,4]oxazine-8-carboxamide], under 0.1 µM.
With `O=C(Nc1ccc(OC(F)(F)F)cc1)c1cccc2c1OC[C@H](CO)N2c1ccc(Cl)cn1` [Example 4-05, (S)-4-(5-chloropyridin-2-yl)-3-hydroxylmethyl-N-(4-trifluoromethoxyphenyl)-3,4-dihydro-2H-benzo[1,4]oxazine-8-carboxamide] the figure was under 0.1 µM; with `O=C(Nc1ccc(C(F)(F)F)cc1)c1cccc2c1OC[C@H](CO)N2c1ccc(Cl)cn1` [Example 4-06, (S)-4-(5-chloropyridin-2-yl)-3-hydroxylmethyl-N-(4-trifluoromethylphenyl)-3,4-dihydro-2H-benzo[1,4]oxazine-8-carboxamide], under 0.1 µM.
In the case of `Cc1ccc(N2c3cccc(C(=O)Nc4ccc(OC(F)(F)F)cc4)c3OC[C@@H]2CO)nc1` [Example 4-07, (S)-4-(5-picoline-2-yl)-3-hydroxylmethyl-N-(4-trifluoromethoxyphenyl)-3,4-dihydro-2H-benzo[1,4]oxazine-8-carboxamide] it was under 0.1 µM.
The compound `Cc1ccc(N2c3cccc(C(=O)Nc4ccc(C(F)(F)F)cc4)c3OC[C@@H]2CO)nc1` [Example 4-08, (S)-4-(5-picoline-2-yl)-3-hydroxylmethyl-N-(4-trifluoromethylphenyl)-3,4-dihydro-2H-benzo[1,4]oxazine-8-carboxamide] displayed a 50% inhibitory concentration (IC50) of under 0.1 µM.
`CC(C)Oc1ccc(NC(=O)c2cccc3c2OC[C@H](CO)N3c2ncccc2Cl)cc1F` [Example 4-09] registered an IC50 of under 0.1 µM.
